Experiment [1] relates to HIV-1 JR-FL or HIV-1 NL4-3 pseudoviruses. Description: HIV-1 pseudovirus infection luciferase. Type of experiment: cell-based. The conditions noted are these: 10µM. As to the method:
(§1) Columns FK-GB, Moore group (data presented first in this paper). HIV and HIV-producing cell lines, toxicity and viral suppression. […] MMV compounds were incubated with HIV-1 JR-FL or HIV-1 NL4-3 pseudoviruses and U87-CD4-CCR5 or U87-CD4-CXCR4 cells (obtained through the NIH AIDS Reagent Program, Division of AIDS, NIAID, NIH: U87 CD4+CCR5+ Cells from Dr. HongKui Deng and Dr. Dan R. Littman) respectively for 3 days. Cells were assayed for infection by luciferase production (Bright-Glo Luciferase Substrate, Promega) and cell viability by MTT assay. […] MMV compounds were next incubated with HIV-1 JR-FL or HIV-1 NL4-3 viruses and U87-CD4-CCR5 or U87-CD4-CXCR4 cells respectively for 7 days. Cell supernatants were assayed for viral production by p24 ELISA [153] and cell viability by MTT assay. […] DMSO (5%) was completely toxic to all cells (based on visual inspection) and served as the positive control for MTT assays.

In experiment [2] the test system is HIV-1 JR-FL or HIV-1 NL4-3 viruses. The experiment can be described thus: HIV-1 viral production p24 ELISA. Format: cell-based. The conditions noted are these: 10µM. Here is the method:
as §1
A general note: An ELISA detects its analyte on a solid surface through an enzyme-linked reagent.

In the next experiment the test system is P. falciparum Dd2. The experiment can be described thus: Malaria Sybr Green I Fluorescence assay Dd2 Horrocks. Type of experiment: cell-based. Particulars: Plasmodium falciparum, DD2, 48 h; read-out: P. falciparum Dd2 asexual blood stage EC50 Horrocks. As to the method: Column S: Horrocks group (data presented first in this paper). Asexual Dd2 inhibition of growth (IC50s): IC50 for the Dd2 clone of Plasmodium falciparum were determined using the Malaria Sybr Green I Fluorescence assay. Drug assays were initiated using a 2% trophozoite stage parasitaemia and 2% hematocrit and fluorescence measured after 48 h as fully described in Hasenkamp et al.[53]. Log dose-response curves were plotted in GraphPad Prism (v5.0). The controls for Dd2 using our 48hr Sybr Green I assay were (rounded to nearest nM): Chloroquine 209nM, Mefloquine 11nM, Quinine 246nM, Dihydroartemisinin 4nM, Artemether 10nM, Atovaquone 3nM.

For a further experiment, the system named is P. falciparum HB3. Description: Stage-specificity / mitochondrial integrity image assay Ayong. Type of experiment: cell-based. The conditions noted are these: 10µM.
The test system of experiment [3] is P. falciparum 3D7 trophozoites. The experiment can be described thus: Metabolomic fingerprint profiling LC-MS. Type of experiment: cell-based, Plasmodium falciparum. Also on record: UDP-D-glucose / ADP-D-glucose: unit not given here.
The subject of experiment [4] is bovine Babesia and equine Babesia and Theileria parasites. Description: Babesia and Theileria fluorescence-based assay, all four species. Type of experiment: cell-based, B. bovis, B. bigemina, T. equi, B. caballi.
The test system of the next experiment is P. falciparum. Description: EC50 listed in S2 Table Metabolomics (used to set the concentration tested). Format: cell-based. Particulars: Plasmodium falciparum; EC50 used for Factor_XEC50 in metabolomics; read-out: EC50_nM.
Another experiment deals with P. falciparum 3D7 or K1. Description: Asexual Blood Stage Imaging Assay (DAPI) V. Avery. Format: cell-based.
In experiment [5] the test system is P. falciparum NF54 GFP-Pfs16 gametocytes stage I-III. Particulars: ref [71]; cited from earlier work.
In experiment [6] the test system is P. falciparum NF54 GFP-Pfs16 gametocytes stage IV-V. The conditions noted are these: ref [71]; cited from earlier work.
Another experiment relates to Chromera velia. Description: Chromera velia flagellation motility assay.
Where [7] appears, read: metabolite level change after treatment.
The mark [8] stands for this setting: Plasmodium falciparum, read-out: P. falciparum 3D7 asexual blood stage EC50 (Image) V. Avery.
Setting [9] is: Plasmodium falciparum, read-out: P. falciparum K1 asexual blood stage EC50 (Image) V. Avery.

The structures appear in SMILES notation. Where two headings read alike, the source gives them in different places.

As for `Cc1cn([C@H]2C[C@H](N=[N+]=[N-])[C@@H](CO)O2)c(=O)[nH]c1=O` [AZT, reference compound], the “viral infection by luciferase, positive control” value in [1] was “completely blocked viral infection”. Moreover, the “viral infection by p24 production, positive control” value in [2] is “completely blocked viral infection”.

Regarding `CO[C@H]1O[C@@H]2O[C@@]3(C)CC[C@H]4[C@H](C)CC[C@@H]([C@H]1C)[C@@]24OO3` [Artemether], the EC50 with P. falciparum Dd2 was 10 nM.

With `CC(=O)N[C@@H]1[C@@H](O)[C@H](O)[C@@H](CO)O[C@H]1O` [GlcNAC, N-acetylglucosamine, reference compound], in the experiment on P. falciparum HB3, the “Effects on asexual life cycle progression (treatment at ER, LR, T, S; merozoites; mitochondrial integrity)” value is recorded as “LR-o-o-o-X-o”.

Regarding `CN(C)c1ccc(C(O)(c2ccc(N(C)C)cc2)c2ccc(N(C)C)cc2)cc1` [MMV665941], the Acetyllysine in experiment [3] (S2 Table Metabolomics, metabolite Acetyllysine) was -1.017. For the same compound, the N-acetyl-L-ornithine in [3] (S2 Table Metabolomics, metabolite N-acetyl-L-ornithine) is -0.7597. For the same compound, the N-carbamoyl-L-aspartate in experiment [3] (S2 Table Metabolomics, metabolite N-carbamoyl-L-aspartate) is -0.9197. Moreover, the NADPH in experiment [3] (S2 Table Metabolomics, metabolite NADPH) was 0.7329. Also, the dAMP in [3] (S2 Table Metabolomics, metabolite dAMP) was -0.1528. Besides, the dCMP in experiment [3] (S2 Table Metabolomics, metabolite dCMP) was -0.8045. For the same compound, the dTDP in experiment [3] (S2 Table Metabolomics, metabolite dTDP) is -0.3693. In experiment [3] (S2 Table Metabolomics, metabolite dTMP), the dTMP is -0.3724. Moreover, the dTTP in experiment [3] (S2 Table Metabolomics, metabolite dTTP) is 0.2892. Further, the dihydroorotate in experiment [3] (S2 Table Metabolomics, metabolite dihydroorotate) was -0.7761. The orotate in [3] (S2 Table Metabolomics, metabolite orotate) is -0.6971. In addition, in experiment [3] (S2 Table Metabolomics, peptide DLH), the DLH is -0.3436. For the same compound, the DLS/SDL/SID in [3] (S2 Table Metabolomics, peptide DLS/SDL/SID) was -0.7858. The compound further had a PD in [3] (S2 Table Metabolomics, peptide PD) of -0.9616. In addition, in experiment [3] (S2 Table Metabolomics, peptide PEE), the PEE is recorded as -0.896. In experiment [3] (S2 Table Metabolomics, peptide PVNF), this compound came in with a PVNF of -0.9967. Moreover, the 3-phosphoglycerate in experiment [3] (metabolite 3-phosphoglycerate, S2 Table Metabolomics) is on record as -0.2513. For the same compound, in experiment [3] (metabolite ADP-D-glucose, S2 Table Metabolomics), the ADP-D-glucose is recorded as -0.2022. Besides, the ATP in [3] (metabolite ATP, S2 Table Metabolomics) is on record as -0.1582. For the same compound, the CDP in experiment [3] (metabolite CDP, S2 Table Metabolomics, change in metabolite level after compound treatment) was -0.3781. The D-sedoheptulose-1/7-phosphate in [3] (metabolite D-sedoheptulose-1/7-phosphate, S2 Table Metabolomics, change in metabolite level after compound treatment) was -0.2425. Moreover, the FAD in experiment [3] (metabolite FAD, S2 Table Metabolomics) was -0.1824. For the same compound, in [3] (metabolite GMP, S2 Table Metabolomics, change in metabolite level after compound treatment), the GMP is recorded as -1.314. In [3] (metabolite NAD+, S2 Table Metabolomics), the “NAD+” value was -0.1192. The “NADP+” value in experiment [3] (metabolite NADP+, S2 Table Metabolomics) came to 0.08054. Also, the “Octoluse Bisphosphate” value in experiment [3] (metabolite Octoluse Bisphosphate, S2 Table Metabolomics, change in metabolite level after compound treatment) is recorded as -0.4622. Also, the Pyroglutamic acid in experiment [3] (metabolite Pyroglutamic acid, S2 Table Metabolomics) is given as -0.1275. Moreover, in [3] (metabolite UDP-D-glucose, S2 Table Metabolomics), the UDP-D-glucose is reported as -0.08523. Further, in [3] (metabolite UDP-D-glucuronate, S2 Table Metabolomics), the UDP-D-glucuronate was -0.09688. Moreover, the UDP-N-acetyl-glucosamine in experiment [3] (metabolite UDP-N-acetyl-glucosamine, S2 Table Metabolomics) was -0.3177. For the same compound, the UDP in [3] (metabolite UDP, S2 Table Metabolomics, change in metabolite level after compound treatment) is recorded as -0.7488. Also, in experiment [3] (metabolite UMP, S2 Table Metabolomics, change in metabolite level after compound treatment), the UMP was -1.259. Moreover, the UTP in experiment [3] (metabolite UTP, S2 Table Metabolomics, change in metabolite level after compound treatment) is reported as -0.2947. In [3] (metabolite a-ketoglutarate, S2 Table Metabolomics), the a-ketoglutarate is -0.5688. The citrate/isocitrate in [3] (metabolite citrate/isocitrate, S2 Table Metabolomics, change in metabolite level after compound treatment) is reported as -0.2269. Also, the cytidine in experiment [3] (metabolite cytidine, S2 Table Metabolomics) was 0.5361. Moreover, the dATP in experiment [3] (metabolite dATP, S2 Table Metabolomics) amounted to 0.2904. Also, the dGMP/AMP in [3] (metabolite dGMP/AMP, S2 Table Metabolomics, change in metabolite level after compound treatment) is reported as -0.7364. Besides, in [3] (metabolite fumarate, S2 Table Metabolomics, change in metabolite level after compound treatment), the fumarate was -0.9732. In experiment [3] (metabolite glucose-1/6-phosphate, S2 Table Metabolomics, change in metabolite level after compound treatment), the glucose-1/6-phosphate was -0.5386. Moreover, the glycerate in [3] (metabolite glycerate, S2 Table Metabolomics, change in metabolite level after compound treatment) was -0.5934. Moreover, the guanine in experiment [3] (metabolite guanine, S2 Table Metabolomics, change in metabolite level after compound treatment) is listed as -0.3347. In addition, the guanosine in experiment [3] (metabolite guanosine, S2 Table Metabolomics, change in metabolite level after compound treatment) is recorded as -0.8332. Besides, the hypoxanthine in [3] (metabolite hypoxanthine, S2 Table Metabolomics) is -0.2046. In [3] (metabolite indole, S2 Table Metabolomics), the indole is -0.2792. Moreover, the inosine in experiment [3] (metabolite inosine, S2 Table Metabolomics, change in metabolite level after compound treatment) was -0.51. Further, in experiment [3] (setting [7]), the 2_3-Diphosphoglyceric acid was -0.09061, the 4-phosphopantothenate is listed as -0.6586, the 6-phospho-D-gluconate was -0.08067 and the FMN is 0.05461. Further, in experiment [3] (setting [7]), the IMP is -0.2283, the Pyrophosphate was -0.1004, the Sedoheptoluse bisphosphate is -0.2916 and the cyclic-AMP stood at 0.03248. Moreover, in experiment [3] (setting [7]), the glutathione disulfide was -0.3448, the lactate is given as -0.6265 and the myo-inositol is on record as -1.035. Besides, in experiment [3] (metabolite nicotinate, S2 Table Metabolomics), the nicotinate worked out at 0.06813. Besides, the ornithine in [3] (metabolite ornithine, S2 Table Metabolomics) was -0.116. Besides, in experiment [3] (metabolite phosphoenolpyruvate, S2 Table Metabolomics), the phosphoenolpyruvate is reported as -0.1381. The pyruvate in experiment [3] (metabolite pyruvate, S2 Table Metabolomics, change in metabolite level after compound treatment) is recorded as -0.3661. In addition, the ribose-phosphate in experiment [3] (metabolite ribose-phosphate, S2 Table Metabolomics) is listed as -0.3246. In experiment [3] (metabolite sarcosine/alanine, S2 Table Metabolomics, change in metabolite level after compound treatment), the sarcosine/alanine is -0.4581. Further, the sn-glycerol-3-phosphate in [3] (metabolite sn-glycerol-3-phosphate, S2 Table Metabolomics) was -0.06155. Further, the succinate/methylmalonic acid in [3] (metabolite succinate/methylmalonic acid, S2 Table Metabolomics, change in metabolite level after compound treatment) is recorded as -1.567. Also, the uridine in experiment [3] (metabolite uridine, S2 Table Metabolomics, change in metabolite level after compound treatment) is -0.4322. The xanthosine in experiment [3] (metabolite xanthosine, S2 Table Metabolomics, change in metabolite level after compound treatment) is reported as -0.131. Moreover, the “anti-Babesia and anti-Theileria hits, IC50 in words” value in experiment [4] was “nanomolar IC50s”. Also, the EC50 with P. falciparum amounted to 255 nM.

In the case of `OC(c1cc(C(F)(F)F)nc2c(C(F)(F)F)cccc12)C1CCCCN1` (stereo not shown) [Mefloquine], the EC50 with P. falciparum Dd2 is 11 nM.

In the case of `C=C[C@H]1C[N@@]2CC[C@H]1C[C@H]2[C@H](O)c1ccnc2ccc(OC)cc12` [Quinine], the EC50 in the experiment with P. falciparum Dd2 was 246 nM.

In the case of `CC[C@H](C)[C@H](NC(=O)[C@H]([C@@H](C)CC)N(C)C(C)=O)C(=O)N[C@H](C(=O)N[C@@H](CC(C)C)C(=O)[C@@]1(C)CO1)[C@@H](C)O` [epoxomicin], the EC50 was found to be 1 nM in the experiment on P. falciparum 3D7 or K1 (3D7, read-out: P. falciparum 3D7 asexual blood stage EC50 (Image) V. Avery) and 2 nM with P. falciparum 3D7 or K1 (K1, read-out: P. falciparum K1 asexual blood stage EC50 (Image) V. Avery).

Consider `CCc1nc(N)nc(N)c1-c1ccc(Cl)cc1` [pyrimethamine, reference compound], for which the EC50 in the experiment on P. falciparum 3D7 or K1 (setting [8]) was 2 nM; with P. falciparum 3D7 or K1 (setting [9]), 7200 nM. The “early gametocyte imaging, no activity at” value in experiment [5] was more than 40 µM. For the same compound, the “late gametocyte imaging, no activity at” value in [6] was more than 40 µM.

As for `COc1ccc2nc3cc(Cl)ccc3c(Nc3cc(CN4CCCC4)c(O)c(CN4CCCC4)c3)c2n1` [pyronaridine], the EC50 in the experiment on P. falciparum 3D7 or K1 (setting [8]) stood at 3 nM; in the experiment on P. falciparum 3D7 or K1 (setting [9]) it was 5 nM.

On to `Oc1cc(Cl)ccc1Oc1ccc(Cl)cc1Cl` [triclosan, reference compound], for which the entries for the “C. velia flagellation score” value in the experiment on Chromera velia (0.1 µM) and in the experiment on Chromera velia (1µM) were “+” and 0, respectively.

(Values after publication PMC4965013, “Open Source Drug Discovery with the Malaria Box Compound Collection for Neglected Diseases and Beyond” (PLoS Pathogens, 2016).)
